Several values for one entry are separate records, joined by “and”; a condition that tells them apart may be missing. Equal entries are not always repeated. Each block holds one compound with its values, some of them ahead of it.
Key:
[1] = test system: NHDF (normal human dermal fibroblast) cells; test: Toxicity test in normal cells (WST-8); type: cell-based
Protocol: NHDF (normal human dermal fibroblast; ATCC, USA) cells were seeded at about 5,000 cells per well in a 96-well plate and stabilized for 24 hours, and then treated with Lotanoside B isolated in Example 2 at various concentrations (0, 6.25, 12.5, 25, or 50 μM). As a control group, 5-FU (anticancer drug) and kaempferol were treated at various concentrations (5-FU: 0, 1.25, 2.5, 5 or 10 μM; kaempferol: 0, 5, 10, 20 or 40 μM). After culturing in a CO2 incubator for 48 hours, WST-8 ((2-(2-methoxy-4-nitrophenyl)-3-(4-nitrophenyl)-5-(2,4-disulfophenyl)-2H-tetrazolium, monosodium salt) reagent was treated, and after culturing for 2 hours, the optical density (OD) was measured at a wavelength of 450 nm by using a microplate reader.

[2] = test system: mouse skin epithelial cell JB6; test: TPA-induced cell transformation colony growth inhibition (soft agar); type: cell-based; details: TPA 10 ng/ml, JB6 colonies, about 2 weeks
Protocol: (§1) The carcinogenicity inhibitory effect of the extract of Loranthus tanakae Franch. & Sav was determined in a carcinogenic model in which the mouse skin epithelial cell JB6 (ATCC, USA) was treated with EGF, which is a growth factor that increases cancer cell occurrence, and TPA, which is a tumor-promoting factor, to induce malignant transformation.
(§2) Specifically, agar mix (0.5%) including BME, FBS, glutamine, gentamicin, PBS and 1.25% agar, EGF (10 ng/ml) or TPA (10 ng/ml) and the 70% ethanol extract of Loranthus tanakae Franch. & Sav prepared in Example 1-1 were mixed, dispensed into 6-well plates at 3 mL per well, and solidified (bottom agar). Mouse skin epithelial cells JB6 (ATCC, USA) were detached by trypsin treatment, washed with 1×PBS, and resuspended in 10% BME to determine the cell number. 8,000 cells were prepared per well, and agar mix (0.3%), EGF or TPA and the 70% ethanol extract of Loranthus tanakae Franch. & Sav prepared in Example 1-1 were mixed, dispensed into 1 mL per well, and solidified (upper agar). After culturing in a CO2 incubator for about 2 weeks, colonies were photographed under a microscope, and the number of colonies was counted by using Image-Pro Plus software (v.6.0) program (Media Cybernetics, Silver Spring, MD, USA).

[3] = test system: SKMEL-5 melanoma cancer cells; test: Cancer cell growth inhibition (WST-8 assay); type: cell-based
Protocol: SKMEL-5 melanoma cancer cells (ATCC, USA) were dispensed into a 96-well plate at 1,000 cells per well and stabilized for 24 hours, and then treated with Lotanoside B at different concentrations (0, 6.25, 12.5, 25 or 50 μM). As a control group, 5-FU (anticancer drug) and kaempferol were treated at different concentrations, respectively (5-FU: 0, 1.25, 2.5, 5 or 10 μM; kaempferol: 0, 5, 10, 20 or 40 μM). Afterwards, the cells were cultured in a CO2 incubator for 72 hours, and then treated with WST-8 ((2-(2-methoxy-4-nitrophenyl)-3-(4-nitrophenyl)-5-(2,4-disulfophenyl)-2H-tetrazolium, monosodium salt) reagent, and after culturing for about 2 hours, the optical density (OD) was measured at a wavelength of 450 nm by using a microplate reader.

[4] = test system: mouse skin epithelial cell JB6; test: EGF-induced cell transformation colony growth inhibition (soft agar); type: cell-based; details: EGF 10 ng/ml, JB6 colonies, about 2 weeks
Protocol: as §1, §2

[5] = test system: DMBA/TPA-induced skin cancer; type: in vivo, ICR mice
Protocol: Female ICR mice (5 weeks old, 20~25 g) were purchased as experimental animals from Samtaco Co., Ltd. (Osan, Korea), and were provided with water and food freely in a cage equipped with a constant temperature and humidity device. After a one-week adaptation period, the hair on the back of the mice was removed, and they were divided into six groups as shown in Table 1 and raised for 20 weeks.
When DMBA (7,12-Dimethylbenz[a]anthracene), which induces carcinogenesis, is treated to the depilated area and TPA (12-Otetradecanoylphorbol-13-acetate, promoter) is continuously applied, skin inflammation and skin cancer are induced. […] TPA, Lotanoside B and 5-FU were diluted in acetone and topically treated to the back area twice a week, and the number and size of the tumors formed and the weight of the mice were measured.

[6] = 0.1 and 1 μmole topical twice a week, 20 weeks, vs DMBA/TPA group, reduction greater at 1 μmole

Structure (SMILES): O=c1[nH]cc(F)c(=O)[nH]1 [5-FU, fluorouracil]
concentration at which toxicity begins to show ([1]; human, 48 h): 10 µM

IC50 ([3]; Homo sapiens, SK-MEL-5, SKMEL-5, 72 hours, WST-8): 32.1 µM
Structure (SMILES): COc1cc(O)c2c(=O)c(OC3OC(C)C(O)C(O)C3O)c(-c3ccc(OC4OC(COC(=O)/C=C/c5ccccc5)C(O)C(O)C4O)c(O)c3)oc2c1 (stereo not drawn) [Lotanoside B, rhamnetin-3-O-rhamnoside-4′-O-(6″-O-cinnamoyl)-glucoside]
inhibition rate compared to the TPA treatment group ([2]; 50 μM): 76.2%
inhibition at 50 µM ([2]; Mus musculus, Epithelial cell, 336 h, 50 μM, read-out: inhibition rate compared to the TPA treatment group): 74.2%
concentration at which toxicity begins to show ([1]; human, 48 h): > 50 µM
cancer cell growth inhibition effect compared to kaempferol ([3]; SKMEL-5, 72 hours, WST-8): superior cancer cell growth inhibition effect compared to kaempferol
cancer cell growth inhibition effect ([3]; SKMEL-5, at a concentration that did not exhibit toxicity): 78.5%
inhibition at 50 µM ([4]; Mus musculus, Epithelial cell, 336 h, 50 μM, read-out: inhibition rate compared to the EGF treatment group): 66.7%
number of tumors [5, 6]: decreased
tumor area [5, 6]: decreased
tumor incidence [5, 6]: decreased
effect in inhibiting skin cancer formation compared to 5-FU ([5]; 5-FU 0.1 μmole as positive control): superior effect in inhibiting skin cancer formation compared to 5-FU

Structure (SMILES): O=c1c(O)c(-c2ccc(O)cc2)oc2cc(O)cc(O)c12 [kaempferol]
concentration at which toxicity begins to show ([1]; NHDF, 48 hours, WST-8): 40 µM

Structure (SMILES): COc1cc(O)c2c(=O)c(OC3OC(CO)C(O)C(O)C3O)c(-c3ccc(O)c(O)c3)oc2c1 (stereo not drawn) [rhamnetin-3-O-glucoside]
inhibition rate compared to the TPA treatment group ([2]; test concentration not given): 76.2% and 74.2%
inhibition rate compared to the EGF treatment group ([4]; test concentration not given): 92.9%
